Source: ChEMBL document CHEMBL1139248 (Bioorg Med Chem Lett, 2009)

What was measured:
[1] = molecular target: T1, Calcitonin gene-related peptide type 1 receptor (Homo sapiens, UniProt O60894+Q16602); experiment: biochemical; type: cell-based, HEK293
Description: Displacement of [125I]hCGRP from human CGRP receptor expressed in HEK293 cells coexpressing RAMP1

[2] = molecular target: T1, Calcitonin gene-related peptide type 1 receptor; type: functional, cell-based, HEK293
[3] = molecular target: T1, Calcitonin gene-related peptide type 1 receptor; experiment: Antagonistic activity at human CGRP receptor expressed in HEK293 cells coexpressing RAMP1 assessed as inhibition of CGRP-induced cAMP production; type: functional, cell-based

T1 sequence (Q16602 whole entry, one chain of several): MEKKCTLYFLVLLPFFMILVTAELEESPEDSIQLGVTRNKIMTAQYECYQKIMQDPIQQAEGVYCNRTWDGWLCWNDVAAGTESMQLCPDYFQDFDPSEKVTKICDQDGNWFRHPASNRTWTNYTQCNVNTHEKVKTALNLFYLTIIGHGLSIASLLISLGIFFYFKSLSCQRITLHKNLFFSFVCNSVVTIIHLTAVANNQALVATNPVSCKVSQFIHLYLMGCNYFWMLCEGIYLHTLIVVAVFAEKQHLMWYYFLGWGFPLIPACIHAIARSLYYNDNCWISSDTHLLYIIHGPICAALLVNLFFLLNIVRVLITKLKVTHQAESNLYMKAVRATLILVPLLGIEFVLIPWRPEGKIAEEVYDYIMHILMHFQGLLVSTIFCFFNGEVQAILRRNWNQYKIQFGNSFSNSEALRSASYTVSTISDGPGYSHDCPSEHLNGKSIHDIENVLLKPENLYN

O=C1CN(C2CCN(C(=O)N[C@@H]3N=C(c4ccccc4)c4ccccc4N(CC(F)(F)F)C3=O)CC2)C(=O)N1
Ki [1]: 520 nM

CN1C(=O)NC(=O)[C@]12Cc1ccc(NC(=O)Cn3c(=O)n(C4CCOC4)c4ccccc43)cc1C2 (some centres undefined)
IC50 [2]: 170 nM

O=C(N[C@@H]1N=C(c2ccccc2)c2ccccc2N(CC(F)(F)F)C1=O)N1CCC(n2c(=O)[nH]c3ccccc32)CC1
Ki [1]: 2200 nM

O=C(N[C@@H]1N=C(c2ccccc2)c2ccccc2N(CC(F)(F)F)C1=O)N1CCC(n2c(=O)[nH]c3ncccc32)CC1
Ki [1]: 22 nM
IC50 [2]: 730 nM

O=C(Cn1c(=O)n(C2CCOC2)c2ccccc21)Nc1ccc2c(c1)C[C@]1(C2)C(=O)Nc2ncccc21 (some centres undefined)
IC50 [3]: 5.2 nM
Ki [1]: 1.2 nM
IC50 [2]: 27 nM

O=C(Cn1c(=O)n(C2CCSCC2)c2ccccc21)Nc1ccc2c(c1)C[C@]1(C2)C(=O)Nc2ncccc21
IC50 [3]: 2.5 nM
Ki [1]: 0.87 nM
IC50 [2]: 24 nM

O=C(CN1C(=O)C2(CCOCC2)c2ccccc21)Nc1ccc2c(c1)C[C@]1(C2)C(=O)Nc2ncccc21
IC50 [3]: 5.7 nM
Ki [1]: 1.7 nM
IC50 [2]: 39 nM

O=C1CC2(Cc3ccc(NC(=O)Cn4c(=O)n(-c5ccccn5)c5ccccc54)cc3C2)C(=O)N1 (centres undefined)
Ki [1]: 96 nM

O=C(Cn1c(=O)n(-c2ccccn2)c2ccccc21)Nc1ccc2c(c1)CC1(CCCNC1=O)C2 (centres undefined)
Ki [1]: 2700 nM

O=C(Cn1c(=O)n(-c2ccccn2)c2ccccc21)Nc1ccc2c(c1)C[C@@]1(C2)NC(=O)NC1=O
Ki [1]: 230 nM

O=C(Cn1c(=O)n(-c2ccccn2)c2ccccc21)Nc1ccc2c(c1)CC1(CCNC1=O)C2 (centres undefined)
Ki [1]: 270 nM

O=C(Cn1c(=O)n(-c2ccccn2)c2ccccc21)Nc1ccc2c(c1)C[C@]1(C2)C(=O)Nc2ncccc21
IC50 [3]: 8.6 nM
Ki [1]: 2.3 nM
IC50 [2]: 420 nM

O=C(Cn1c(=O)n(-c2ccccn2)c2ccccc21)Nc1ccc2c(c1)C[C@@]1(C2)N=C(c2cccnc2)NC1=O
Ki [1]: 130 nM

O=C(Cn1c(=O)n(-c2ccccn2)c2ccccc21)Nc1ccc2c(c1)CC1(C2)C(=O)Nc2ncccc21 (centres undefined)
Ki [1]: 3.7 nM

CN1C(=O)NC(=O)[C@]12Cc1ccc(NC(=O)CN3C(=O)C4(CCOCC4)c4ccccc43)cc1C2
IC50 [3]: 57 nM
Ki [1]: 35 nM
IC50 [2]: 160 nM

O=C(Cn1c(=O)n(-c2ccccn2)c2ccccc21)Nc1ccc2c(c1)C[C@@]1(C2)N=C(C2CC2)NC1=O
Ki [1]: 2600 nM

CN1C(=O)NC(=O)[C@]12Cc1ccc(NC(=O)Cn3c(=O)n(-c4ccncn4)c4ccccc43)cc1C2
IC50 [3]: 10 nM
Ki [1]: 16 nM
IC50 [2]: 74 nM

O=C(Cn1c(=O)n2c3c(cccc31)NC(=O)C2)Nc1ccc2c(c1)C[C@]1(C2)C(=O)Nc2ncccc21
IC50 [3]: 0.28 nM
Ki [1]: 0.04 nM
IC50 [2]: 0.62 nM

O=C(Cn1c(=O)n(-c2ccccn2)c2ccccc21)Nc1ccc2c(c1)CC1(C2)C(=O)Nc2ccccc21 (centres undefined)
Ki [1]: 520 nM

Cc1cc(C)c2c(c1)n(CC(=O)Nc1ccc3c(c1)C[C@]1(C3)C(=O)Nc3ncccc31)c(=O)n2CC(=O)N(C)C
IC50 [3]: 0.87 nM
Ki [1]: 0.21 nM
IC50 [2]: 4.1 nM

O=C(Cn1c(=O)n(-c2ccccn2)c2ccccc21)Nc1ccc2c(c1)C[C@@]1(C2)N=C(c2ccccc2)NC1=O
Ki [1]: 34 nM

O=C(Cn1c(=O)n(-c2ccncn2)c2ccccc21)Nc1ccc2c(c1)C[C@]1(C2)C(=O)Nc2ncccc21
IC50 [3]: 1.6 nM
Ki [1]: 0.61 nM
IC50 [2]: 35 nM

CN1C(=O)NC(=O)[C@]12Cc1ccc(NC(=O)Cn3c(=O)n(C4CCSCC4)c4ccccc43)cc1C2
IC50 [3]: 27 nM
Ki [1]: 13 nM
IC50 [2]: 220 nM
